Experiment [1] relates to arteriosclerosis (lesion of the aorta) in guinea pigs fed on high-fat diet. Kind of experiment: Guinea pig high-fat diet arteriosclerosis model, lesion area of aorta (Sudan IV staining). It counts as in vivo. On the procedure:
80 SPF healthy guinea pigs (female:male 1:1) having a body weight of 250-300 g, were assigned to 8 groups at random, each group having 10 animals. The groups include:
(1) a normal control group, fed on basal diet, and allowed to free access to water during experiment;
(2) a high fat control group, fed on high-fat diet, and allowed to free access to water during experiment;
(3) a high fat prevention group, fed on high-fat diet, dosed with 10 mg NMN/kg body weight by gavage every day, and allowed to free access to water during experiment;
(4) a low-dose NMN group, fed on high-fat diet, dosed with 0.1 mg NMN/kg body weight by gavage every day from week 7, and allowed to free access to water during experiment;
(5) a medium-dose NMN group, fed on high-fat diet, dosed with 10 mg NMN/kg body weight by gavage every day from week 7, and allowed to free access to water during experiment;
(6) a high-dose NMN group, fed on high-fat diet, dosed with 20 mg NMN/kg body weight by gavage every day from week 7, and allowed to free access to water during experiment;
(7) NMN+NR gavage group: fed on high-fat diet, dosed with 10 mg NMN/kg body weight and 1 mg NR/kg body weight by gavage every day from week 7, and allowed to free access to water during experiment.
(8) NMN+NR injection group: fed on high-fat diet, dosed with 10 mg NMN/kg body weight and 5 mg NR/kg body weight by intramuscular injection every day from week 7, and allowed to free access to water during experiment.
The formulation of the high-fat diet includes 83% basal diet, 2% cholesterol, and 15% lard oil.
At the end of week 10, all the experimental animals was fasted (allowed to access to water) for 12 hrs and then sacrificed. The aorta was isolated, dissected longitudinally along the midline of the anterior wall, and stained with Sudan IV. […] The lesion area pathologically measured and the total endangium area were quantified, and the degree of arteriosclerosis was expressed by percentages of the lesion area relative to the total endangium area of the aorta.
Statistical analysis: All the experimental data is analyzed by SPSS13.0 Statistics software. The measurement data is expressed as x±s, and t test is applied to check the statistical significance. Where P<0.05, there is statistical significance.

Experiment [2] relates to patients having cardio-cerebrovascular diseases resulting from arteriosclerosis. Kind of experiment: Clinical trial in patients with cardio-cerebrovascular diseases resulting from arteriosclerosis. It counts as in vivo, human. The conditions noted are these: for Total effective rate: excluding the withdrawing patients. The source says: 300 patients (male:female 1:1, aged 35-78 years and 57.5 years on average, and having a course of disease of the shortest 1.5 years, the longest 7 years, and 4.6 years on average) diagnosed as having cardio-cerebrovascular diseases resulting from arteriosclerosis were selected at random as subjects for clinical observation. The patients were assigned to a group A, a group B, and a group C at random, each group having 100 patients.
Group A: The patients were orally administered with NMN at a dosage of 10 mg/kg body weight before or after meals every day, and the diet was controlled as desired.
Group B: The patients were orally administered with NMN at a dosage of 10 mg/kg body weight and with NR at a dosage of 2 mg/kg body weight before or after meals every day, and the diet was controlled as desired.
Group C: The patients were intramusculary injected with NMN at a dosage of 10 mg/kg body weight and with NR at a dosage of 3 mg/kg body weight before or after meals every day, and the diet was controlled as desired.
(1) Obvious effectiveness: The health is built up, the body is powerful, the blood lipid and blood pressure drop to normal levels, the palpitation, chest pain, chest tightness, headache, dizziness, decreased vision, decreased memory, insomnia and dreamful sleep, and other clinical symptoms are obvious alleviated.
(2) Effectiveness: The health is built up, the blood lipid and blood pressure drop slightly, the palpitation, chest pain, chest tightness, headache, dizziness, decreased vision, decreased memory, insomnia and dreamful sleep, and other clinical symptoms are alleviated to some extent.
(3) Ineffectiveness: There is no obvious improvement in the clinical symptoms.

Where [3] appears, read: Group A: oral NMN 10 mg/kg every day, after 1 month.
Where [4] appears, read: Group A: oral NMN 10 mg/kg every day, after 1 month, 100 patients.

Consider `NC(=O)c1ccc[n+]([C@@H]2O[C@H](COP(=O)([O-])O)[C@@H](O)[C@H]2O)c1` [NMN, β-nicotinamide mononucleotide], for which the “Rate of lesion area of aorta (%)” value in experiment [1] (high fat prevention group: high-fat diet, 10 mg NMN/kg body weight by gavage every day, end of week 10, x±s) is listed as 13 ± 2%; in experiment [1] (high-dose: high-fat diet, 20 mg NMN/kg by gavage every day from week 7, end of week 10, x±s), 18 ± 4%; in experiment [1] (low-dose: high-fat diet, 0.1 mg NMN/kg by gavage every day from week 7, end of week 10, x±s), 58 ± 5%; in experiment [1] (medium-dose: high-fat diet, 10 mg NMN/kg by gavage every day from week 7, end of week 10, x±s) it was 27 ± 3%. Further, in experiment [2] (Group A: oral NMN 10 mg/kg body weight every day), the “Time after administration at which patients with mild disease are cured” value stood at 7 days. In addition, the “Patients showing obvious effectiveness” value in experiment [2] (setting [3]) is on record as 67 out of 100 patients. Also, the Patients showing effectiveness in experiment [2] (setting [4]) is listed as 28 patients. Further, the Patients showing ineffectiveness in experiment [2] (setting [4]) was 4 patients. The Total effective rate in experiment [2] (setting [3]) is recorded as 96%; in experiment [2] (Group A: oral NMN 10 mg/kg every day, after 1 month, listed as β-nicotinamide mononucleotide), “up to 96%”.

Source of the values: patent US20170165282A1, “USE OF BETA-NICOTINAMIDE MONONUCLEOTIDE IN PREPARATION OF DRUGS FOR PREVENTING AND TREATING ARTERIOSCLEROSIS AND CARDIO-CEREBROVASCULAR DISEASES, AND DRUGS CONTAINING THE SAME” (BONTAC BIO-ENGINEERING (SHENZHEN) CO., LTD, priority 2015, published 2017).
